Laboratory results from patent publication US20240269139A1, “COMPOUNDS FOR TARGETED PROTEIN DEGRADATION OF KINASES” (DANA-FARBER CANCER INSTITUTE, INC., priority 2020, published 2024).
Where two headings read alike, the source gives them in different places.

Experiments:
Type in all cases: cell-based
[1] = molecular target: protein kinases (human kinome) (Homo sapiens, UniProt P30291); settings: for logFC of WEE1: WEE1 P30291-1
[2] = molecular target: T1, protein kinases (human kinome) (Homo sapiens, UniProt O14976)
T1 sequence (O14976 1-1311): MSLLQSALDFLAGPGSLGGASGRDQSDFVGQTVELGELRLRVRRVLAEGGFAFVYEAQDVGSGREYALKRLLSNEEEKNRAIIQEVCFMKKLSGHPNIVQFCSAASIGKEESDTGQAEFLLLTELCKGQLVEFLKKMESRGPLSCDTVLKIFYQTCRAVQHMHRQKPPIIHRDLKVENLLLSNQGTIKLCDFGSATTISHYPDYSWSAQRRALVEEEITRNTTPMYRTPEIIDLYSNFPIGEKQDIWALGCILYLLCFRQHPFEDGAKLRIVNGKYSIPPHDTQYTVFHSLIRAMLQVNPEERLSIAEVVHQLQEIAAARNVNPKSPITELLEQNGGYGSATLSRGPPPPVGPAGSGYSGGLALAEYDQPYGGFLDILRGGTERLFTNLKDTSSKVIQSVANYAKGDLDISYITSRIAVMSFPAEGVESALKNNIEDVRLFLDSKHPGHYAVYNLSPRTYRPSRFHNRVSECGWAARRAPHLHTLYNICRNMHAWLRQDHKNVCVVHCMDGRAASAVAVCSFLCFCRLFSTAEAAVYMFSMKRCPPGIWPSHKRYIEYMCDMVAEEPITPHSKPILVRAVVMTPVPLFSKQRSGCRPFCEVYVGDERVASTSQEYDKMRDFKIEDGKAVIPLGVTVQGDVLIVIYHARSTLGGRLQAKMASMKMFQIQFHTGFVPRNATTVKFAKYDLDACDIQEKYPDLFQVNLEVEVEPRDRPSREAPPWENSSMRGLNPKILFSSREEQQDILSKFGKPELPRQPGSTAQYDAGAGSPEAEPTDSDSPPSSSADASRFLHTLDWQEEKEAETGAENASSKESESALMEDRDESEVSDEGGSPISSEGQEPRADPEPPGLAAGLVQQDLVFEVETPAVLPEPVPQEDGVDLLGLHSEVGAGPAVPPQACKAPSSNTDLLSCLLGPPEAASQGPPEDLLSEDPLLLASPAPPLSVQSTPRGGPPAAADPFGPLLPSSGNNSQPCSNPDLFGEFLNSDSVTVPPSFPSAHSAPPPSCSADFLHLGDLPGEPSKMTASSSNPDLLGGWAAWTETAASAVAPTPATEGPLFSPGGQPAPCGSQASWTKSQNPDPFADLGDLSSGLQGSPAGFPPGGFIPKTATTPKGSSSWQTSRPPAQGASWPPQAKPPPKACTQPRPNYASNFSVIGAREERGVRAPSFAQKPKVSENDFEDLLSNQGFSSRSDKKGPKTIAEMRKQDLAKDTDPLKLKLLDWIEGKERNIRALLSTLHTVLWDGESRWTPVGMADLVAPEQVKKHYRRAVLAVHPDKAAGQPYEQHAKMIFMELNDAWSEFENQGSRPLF

[3] = molecular target: protein kinases (human kinome) (Homo sapiens, UniProt P16591); settings: for logFC of FER (P16591-1): down
[4] = molecular target: T2, protein kinases (human kinome) (Homo sapiens, UniProt O14965)
T2 sequence (O14965 1-403): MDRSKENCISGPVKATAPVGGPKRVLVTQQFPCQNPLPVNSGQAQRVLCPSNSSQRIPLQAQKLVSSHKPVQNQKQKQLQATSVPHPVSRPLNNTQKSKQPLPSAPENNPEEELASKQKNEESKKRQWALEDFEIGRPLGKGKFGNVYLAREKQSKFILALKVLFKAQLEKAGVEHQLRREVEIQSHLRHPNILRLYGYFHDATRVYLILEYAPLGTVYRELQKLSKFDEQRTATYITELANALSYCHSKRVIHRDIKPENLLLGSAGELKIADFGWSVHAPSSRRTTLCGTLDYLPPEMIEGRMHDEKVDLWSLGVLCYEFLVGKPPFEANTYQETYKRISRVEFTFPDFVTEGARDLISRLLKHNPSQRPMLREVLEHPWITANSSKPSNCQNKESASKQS

[5] = molecular target: protein kinases (human kinome) (Homo sapiens, UniProt Q2M2I8)
[6] = AAK1 (Q2M218-1), experiment wp146, down
[7] = AAK1, accession Q2M218-1, experiment wp146, direction of change down

Chain of protein kinases (human kinome) (Homo sapiens, UniProt P16591) (P16591 whole entry): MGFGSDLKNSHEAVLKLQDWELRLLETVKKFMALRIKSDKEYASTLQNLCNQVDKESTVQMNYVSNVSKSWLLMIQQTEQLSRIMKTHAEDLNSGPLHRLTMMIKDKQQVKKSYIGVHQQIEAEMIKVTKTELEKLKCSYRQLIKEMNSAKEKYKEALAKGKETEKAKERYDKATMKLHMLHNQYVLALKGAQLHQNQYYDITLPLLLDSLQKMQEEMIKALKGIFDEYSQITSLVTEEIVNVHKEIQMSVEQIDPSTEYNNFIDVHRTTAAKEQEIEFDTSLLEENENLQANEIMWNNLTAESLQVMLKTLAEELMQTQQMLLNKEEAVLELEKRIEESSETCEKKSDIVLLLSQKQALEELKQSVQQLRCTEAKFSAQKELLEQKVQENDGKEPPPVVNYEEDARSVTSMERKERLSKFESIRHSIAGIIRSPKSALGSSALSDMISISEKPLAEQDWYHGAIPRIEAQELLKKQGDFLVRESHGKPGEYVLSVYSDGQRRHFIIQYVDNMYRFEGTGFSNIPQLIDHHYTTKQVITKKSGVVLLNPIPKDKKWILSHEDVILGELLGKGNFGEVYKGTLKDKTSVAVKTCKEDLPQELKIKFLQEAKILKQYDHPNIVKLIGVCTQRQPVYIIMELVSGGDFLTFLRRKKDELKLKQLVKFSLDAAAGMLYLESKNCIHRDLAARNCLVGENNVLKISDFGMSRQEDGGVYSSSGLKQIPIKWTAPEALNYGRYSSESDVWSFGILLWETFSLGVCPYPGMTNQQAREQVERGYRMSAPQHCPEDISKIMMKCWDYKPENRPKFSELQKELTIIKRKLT
Chain of protein kinases (human kinome) (Homo sapiens, UniProt P30291) (P30291 whole entry): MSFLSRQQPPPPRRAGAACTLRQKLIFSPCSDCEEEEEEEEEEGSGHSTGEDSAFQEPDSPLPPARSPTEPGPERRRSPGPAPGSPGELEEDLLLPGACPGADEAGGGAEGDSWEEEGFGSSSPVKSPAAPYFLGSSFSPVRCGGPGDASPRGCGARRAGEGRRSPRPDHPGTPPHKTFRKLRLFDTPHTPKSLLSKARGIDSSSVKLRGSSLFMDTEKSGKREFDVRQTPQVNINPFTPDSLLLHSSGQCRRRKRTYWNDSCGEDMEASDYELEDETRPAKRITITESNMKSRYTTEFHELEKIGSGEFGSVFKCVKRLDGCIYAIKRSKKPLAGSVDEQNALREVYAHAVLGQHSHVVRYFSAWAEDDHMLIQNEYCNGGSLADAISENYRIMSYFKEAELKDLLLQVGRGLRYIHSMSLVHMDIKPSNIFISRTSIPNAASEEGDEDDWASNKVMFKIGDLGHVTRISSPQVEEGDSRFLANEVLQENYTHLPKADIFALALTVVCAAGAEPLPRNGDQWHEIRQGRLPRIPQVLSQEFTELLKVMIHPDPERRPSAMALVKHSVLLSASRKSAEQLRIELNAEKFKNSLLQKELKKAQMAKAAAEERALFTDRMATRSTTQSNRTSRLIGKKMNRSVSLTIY
Chain of protein kinases (human kinome) (Homo sapiens, UniProt Q2M2I8) (Q2M2I8 whole entry): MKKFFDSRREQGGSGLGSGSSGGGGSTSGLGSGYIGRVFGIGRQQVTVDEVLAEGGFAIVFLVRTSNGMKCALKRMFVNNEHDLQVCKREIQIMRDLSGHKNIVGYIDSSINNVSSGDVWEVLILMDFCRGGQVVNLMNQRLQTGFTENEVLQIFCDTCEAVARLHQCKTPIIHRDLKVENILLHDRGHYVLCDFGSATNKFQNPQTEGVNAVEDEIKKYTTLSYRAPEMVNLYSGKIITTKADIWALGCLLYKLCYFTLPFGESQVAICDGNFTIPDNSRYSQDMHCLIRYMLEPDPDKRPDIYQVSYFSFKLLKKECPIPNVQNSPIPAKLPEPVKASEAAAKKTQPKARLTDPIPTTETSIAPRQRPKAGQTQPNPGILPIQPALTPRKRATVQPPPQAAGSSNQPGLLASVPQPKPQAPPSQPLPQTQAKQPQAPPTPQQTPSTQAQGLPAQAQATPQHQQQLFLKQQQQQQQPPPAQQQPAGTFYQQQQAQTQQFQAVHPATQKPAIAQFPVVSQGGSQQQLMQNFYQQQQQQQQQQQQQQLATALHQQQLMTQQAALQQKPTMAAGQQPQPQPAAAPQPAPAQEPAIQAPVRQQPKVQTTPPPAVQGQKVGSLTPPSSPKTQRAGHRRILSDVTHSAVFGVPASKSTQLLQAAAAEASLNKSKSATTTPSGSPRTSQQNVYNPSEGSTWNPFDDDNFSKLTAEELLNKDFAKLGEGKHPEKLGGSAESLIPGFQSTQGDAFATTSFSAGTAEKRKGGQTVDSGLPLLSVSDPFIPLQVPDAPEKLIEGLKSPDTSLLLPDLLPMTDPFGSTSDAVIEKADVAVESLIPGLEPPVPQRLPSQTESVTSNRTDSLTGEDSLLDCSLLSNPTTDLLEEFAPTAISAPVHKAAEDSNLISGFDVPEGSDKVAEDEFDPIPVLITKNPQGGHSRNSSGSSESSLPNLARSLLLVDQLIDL

## Cc1ccc(NC(=O)c2cccc(C(F)(F)F)c2)cc1N1Cc2cnc(Nc3ccc(N4CCN(Cc5cn(CCCCCOc6cccc7c6C(=O)N(C6CCC(=O)NC6=O)C7=O)nn5)CC4)nc3)nc2N(C)C1=O (centres unmarked) [DB0646, N-(3-(7-((6-(4-((1-(5-((2-(2,6-Dioxopiperidin-3-yl)-1,3-dioxoisoindolin-4-yl)oxy)pentyl)-1H-1,2,3-triazol-4-yl)methyl)piperazin-1-v)pyridin-3-yl)amino)-1-methyl-2-oxo-1,4-dihydropyrimido[4,5-d]pyrimidin-3(2H)-yl)-4-methylphenyl)-3-(trifluoromethyl)benzamide]
[1]; experiment wp160, 8 hr
  logFC of WEE1: −0.352
  logFC WEE1 (P30291-1): −0.352
[2]; Experiment wp045, down
  logFC of GAK (O14976): −0.6424
[2]; Experiment wp103, down
  logFC of GAK (O14976): −0.4684
[2]; Experiment wp105, down
  logFC of GAK (O14976): −0.3367
[2]; Experiment wp107, down
  logFC of GAK (O14976): −0.5564
[2]; Experiment wp114, down
  logFC of GAK (O14976): −0.3391
[2]; Experiment wp117, down
  logFC of GAK (O14976): −0.5868
[2]; Experiment wp152, down
  logFC of GAK (O14976): −0.5117
[2]; Experiment wp160, 4 hr, down
  logFC of GAK (O14976): −0.4714
[2]; GAK (O14976), direction down, experiment wp045
  logFC GAK: −0.6424
[2]; GAK (O14976), direction down, experiment wp103
  logFC GAK: −0.4684
[2]; GAK (O14976), direction down, experiment wp105
  logFC GAK: −0.3367
[2]; GAK (O14976), direction down, experiment wp107
  logFC GAK: −0.5564
[2]; GAK (O14976), direction down, experiment wp114
  logFC GAK: −0.3391
[2]; GAK (O14976), direction down, experiment wp117
  logFC GAK: −0.5868
[2]; GAK (O14976), direction down, experiment wp152
  logFC GAK: −0.5117
[2]; GAK (O14976), direction down, experiment wp160, 4 hr
  logFC GAK: −0.4714
[2]; GAK (O14976), direction down, experiment wp160, 8 hr
  logFC GAK: −0.8149
[2]; GAK (O14976), experiment wp160, 8 hr, degrader vs DMSO, down
  logFC GAK: −0.8149
[2]; GAK (O14976), experiment wp172, down
  logFC GAK: −0.345
[2]; GAK, accession O14976, experiment wp172, direction of change down
  logFC GAK: −0.345
[3]; Experiment wp045
  logFC of FER (P16591-1): −1.712
[3]; Experiment wp103
  logFC of FER (P16591-1): −1.628
[3]; Experiment wp105
  logFC of FER (P16591-1): −0.8737
[3]; Experiment wp107
  logFC of FER (P16591-1): −1.722
[3]; Experiment wp117
  logFC of FER (P16591-1): −1.753
[3]; Experiment wp160, 2 hr
  logFC of FER (P16591-1): −0.5384
[3]; Experiment wp160, 4 hr
  logFC of FER (P16591-1): −1.454
[3]; Experiment wp160, 8 hr
  logFC of FER (P16591-1): −1.737
[3]; FER P16591-1, experiment wp045
  logFC of FER: −1.712
[3]; FER P16591-1, experiment wp103
  logFC of FER: −1.628
[3]; FER P16591-1, experiment wp105
  logFC of FER: −0.8737
[3]; FER P16591-1, experiment wp107
  logFC of FER: −1.722
[3]; FER P16591-1, experiment wp117
  logFC of FER: −1.753
[3]; FER P16591-1, experiment wp160, 2 hr
  logFC of FER: −0.5384
[3]; FER P16591-1, experiment wp160, 4 hr
  logFC of FER: −1.454
[3]; FER P16591-1, experiment wp160, 8 hr
  logFC of FER: −1.737
[3]; FER P16591, experiment wp152
  logFC of FER: −1.698
[3]; experiment wp152
  logFC of FER (P16591): −1.698
[4]; experiment wp045
  logFC AURKA (O14965): −0.3242
[4]; experiment wp160, 4 hr
  logFC AURKA (O14965): −0.4478

## CC(C)S(=O)(=O)c1ccccc1Nc1nc(Nc2ccc(N3CCN(CCOCCOCCC(=O)NCCNc4cccc5c4CN(C4CCC(=O)NC4=O)C5=O)CC3)cc2)ncc1Cl (centres unmarked) [TL13.97]
[1]; experiment wp137
  logFC of WEE1: −1.585
  logFC WEE1 (P30291-1): −1.585
[3]; Experiment wp137
  logFC of FER (P16591-1): −2.412
[3]; FER P16591-1, experiment wp137
  logFC of FER: −2.412
[4]; experiment wp014
  logFC AURKA (O14965): −0.3268
[4]; experiment wp137
  logFC AURKA (O14965): −1.612
[5]; AAK1 (Q2M218-1), experiment wp137, down
  logFC AAK1: −2.479
[5]; AAK1, accession Q2M218-1, experiment wp137, direction of change down
  logFC AAK1: −2.479

## Cc1cc(Nc2ncc(Br)c(Nc3cccc(F)c3C(N)=O)n2)ccc1S(=O)(=O)NCCOCCOCCOCCOCCNc1cccc2c1C(=O)N(C1CCC(=O)NC1=O)C2=O (centres unmarked) [TMX.02.174]
[1]; experiment wp146
  logFC of WEE1: −1.142
  logFC WEE1 (P30291-1): −1.142
[3]; Experiment wp146
  logFC of FER (P16591-1): −1.089
[3]; FER P16591-1, experiment wp146
  logFC of FER: −1.089
[4]; experiment wp146
  logFC AURKA (O14965): −2.865
[5]; [6]
  logFC AAK1: −1.62
[5]; [7]
  logFC AAK1: −1.62

## NC(=O)c1c(F)cccc1Nc1nc(Nc2ccc(S(=O)(=O)NCCOCCOCCOCCOCCNc3cccc4c3C(=O)N(C3CCC(=O)NC3=O)C4=O)cc2)ncc1Br (centres unmarked) [TMX.02.138]
[3]; Experiment wp146
  logFC of FER (P16591-1): −0.8083
[3]; FER P16591-1, experiment wp146
  logFC of FER: −0.8083
[4]; experiment wp146
  logFC AURKA (O14965): −2.933
[5]; [6]
  logFC AAK1: −1.129
[5]; [7]
  logFC AAK1: −1.129
